# Entries after “also recorded” stand apart in the source; their conditions may differ. Like-named read-outs stand apart in the source and are kept apart here.
# Tests used:
# GST-PTP1B = target: T1, GST-PTP1B (Homo sapiens, UniProt P18031); assay: Colorimetric pNPP assay of inhibition against PTP1B; type: biochemical; details: for IC50: means ± SD of three replications, pNPP substrate, pH 6.5, 30 °C; for TCPTP/PTP1B, the ratio of IC50 of TCPTP and PTP1B: selectivity over TCPTP;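 for all read-outs here: colorimetric inhibition readout run in 96-well plates, with PTP1B and TCPTP both tested in the same assay format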
# T1 sequence (P18031 1-435): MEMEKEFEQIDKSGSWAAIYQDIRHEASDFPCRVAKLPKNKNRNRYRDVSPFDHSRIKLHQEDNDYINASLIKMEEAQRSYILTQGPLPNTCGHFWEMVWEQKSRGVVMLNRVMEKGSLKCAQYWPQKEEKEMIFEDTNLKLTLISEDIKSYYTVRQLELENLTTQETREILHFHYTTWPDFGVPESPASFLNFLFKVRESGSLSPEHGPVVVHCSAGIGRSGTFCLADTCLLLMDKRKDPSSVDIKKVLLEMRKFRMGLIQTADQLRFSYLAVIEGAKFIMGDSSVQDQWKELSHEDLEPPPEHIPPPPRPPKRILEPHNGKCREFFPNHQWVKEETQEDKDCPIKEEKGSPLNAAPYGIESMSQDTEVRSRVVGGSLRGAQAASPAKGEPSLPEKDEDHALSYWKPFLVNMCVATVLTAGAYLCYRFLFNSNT
# Protocol: (§1) A colorimetric assay to measure inhibition against PTP1B and TCPTP was performed in 96-well plates. […] Briefly, the tested compounds were solubilized in DMSO and serially diluted into concentrations for the inhibitory test.
# GST-TCPTP = target: T2, GST-TCPTP (Homo sapiens, UniProt P17706); assay: Colorimetric pNPP assay of inhibition against TCPTP
# T2 sequence (P17706 1-415): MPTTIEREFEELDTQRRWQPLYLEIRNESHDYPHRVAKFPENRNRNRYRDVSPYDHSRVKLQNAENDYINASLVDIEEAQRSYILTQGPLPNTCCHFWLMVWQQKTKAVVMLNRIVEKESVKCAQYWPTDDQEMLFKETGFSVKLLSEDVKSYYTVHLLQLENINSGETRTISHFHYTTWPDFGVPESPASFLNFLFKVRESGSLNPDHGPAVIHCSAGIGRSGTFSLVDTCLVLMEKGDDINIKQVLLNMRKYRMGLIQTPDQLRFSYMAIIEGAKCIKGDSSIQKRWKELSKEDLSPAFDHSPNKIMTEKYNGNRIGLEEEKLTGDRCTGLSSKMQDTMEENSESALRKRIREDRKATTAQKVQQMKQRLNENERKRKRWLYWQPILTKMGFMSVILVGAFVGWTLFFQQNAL
# Protocol: as §1
# PTP1B = target: T3, PTP1B (Homo sapiens, UniProt P18031); assay: PTP1B enzyme kinetic study (Michaelis-Menten, Lineweaver-Burk plot); type: biochemical
# T3 sequence (P18031 1-435): T1 sequence (P18031 1-435)
# [1] = read-out: IC50 against PTP1B (Table 1)
IC50 (GST-PTP1B; read-out: IC50 PTP1B (Table 2)),"TCPTP/PTP1B, the ratio of IC50 of TCPTP and PTP1B (GST-PTP1B)",IC50 (GST-TCPTP),IC50 (GST-PTP1B; [1]),"Ki (PTP1B; 30 nM PTP1B, pNPP up to 80 mM, pH 6.5, read-out: inhibitory constant Ki)","PTP1B inhibitory activity, fold higher than compound 18 (GST-PTP1B; relative to compound 18)",SMILES,"mode of inhibition of PTP1B (PTP1B; Vmax constant, Km increased with compound concentration)"
5.37 ± 1.53 µM,1.4,7.58 ± 1.32 µM,–,–,–,"O=C(O)c1cccc(/C=C/c2ccc(OCc3cc(-c4cccc(Cl)c4)on3)cc2)c1 [Compound 21, (E)-3-(4-((5-(3-Chlorophenyl)isoxazol-3-yl)methoxy)styryl)benzoic acid]",–
–,–,–,23.7 ± 3.62 µM,–,–,COC(=O)c1cccc(/C=C/c2ccc(OCc3cc(-c4ccccc4)on3)cc2)c1 [Compound 18d],–
–,1.5,9.58 ± 0.33 µM,6.33 ± 1.02 µM,–,–,"O=C(O)c1cccc(/C=C/c2ccc(OCc3cc(-c4ccccc4)on3)cc2)c1 [Compound 18, (E)-3-(4-((5-Phenylisoxazol-3-yl)methoxy)styryl)benzoic acid]",–
0.91 ± 0.33 µM,4.2,3.78 ± 0.22 µM,–,780 nM,–,"O=C(O)c1cccc(/C=C/c2ccc(OCc3cc(-c4ccc(Cl)c(Cl)c4)on3)cc2)c1 [Compound 29, (E)-3-(4-((5-(3,4-Dichlorophenyl)isoxazol-3-yl)methoxy)styryl)benzoic acid]",competitive PTP1B inhibitor; also recorded: competitive inhibition
–,–,–,15.7 ± 2.15 µM,–,–,"Cc1onc(-c2ccccc2)c1COc1ccc(/C=C/c2cccc(C(=O)O)c2)cc1 [Compound 17, (E)-3-(4-((5-Methyl-3-phenylisoxazol-4-yl)methoxy)styryl)benzoic acid]",–
2.23 ± 0.51 µM,3.6,8.02 ± 0.99 µM,–,–,–,"COc1ccc(-c2cc(COc3ccc(/C=C/c4cccc(C(=O)O)c4)cc3)no2)cc1 [Compound 27, (E)-3-(4-((5-(4-Methoxyphenyl)isoxazol-3-yl)methoxy)styryl)benzoic acid]",–
2.05 ± 0.54 µM,6.5,13.2 ± 1.7 µM,–,–,3 fold,"O=C(O)c1cccc(/C=C/c2ccc(OCc3cc(-c4cccc([N+](=O)[O-])c4)on3)cc2)c1 [Compound 25, (E)-3-(4-((5-(3-Nitrophenyl)isoxazol-3-yl)methoxy)styryl)benzoic acid]",–
3.34 ± 0.81 µM,1.6,5.19 ± 0.31 µM,–,–,–,"O=C(O)c1cccc(/C=C/c2ccc(OCc3cc(-c4ccc(F)cc4)on3)cc2)c1 [Compound 28, (E)-3-(4-((5-(4-Fluorophenyl)isoxazol-3-yl)methoxy)styryl)benzoic acid]",–
> 20 µM,–,> 40 µM,–,–,–,"O=C(O)c1cccc(/C=C/c2ccc(OCc3cc(-c4cccc(F)c4)on3)cc2)c1 [Compound 22, (E)-3-(4-((5-(3-Fluorophenyl)isoxazol-3-yl)methoxy)styryl)benzoic acid]",–
9.85 ± 2.04 µM,–,> 40 µM,–,–,–,"O=C(O)c1cccc(/C=C/c2ccc(OCc3cc(-c4cccc(Br)c4)on3)cc2)c1 [Compound 23, (E)-3-(4-((5-(3-Bromophenyl)isoxazol-3-yl)methoxy)styryl)benzoic acid]",–
3.68 ± 1.12 µM,5.1,18.9 ± 1.18 µM,–,–,–,"Cc1cccc(-c2cc(COc3ccc(/C=C/c4cccc(C(=O)O)c4)cc3)no2)c1 [Compound 24, (E)-3-(4-((5-(m-Tolyl)isoxazol-3-yl)methoxy)styryl)benzoic acid]",–
7.66 ± 1.05 µM,–,> 40 µM,–,–,–,"COc1ccccc1-c1cc(COc2ccc(/C=C/c3cccc(C(=O)O)c3)cc2)no1 [Compound 20, (E)-3-(4-((5-(2-Methoxyphenyl)isoxazol-3-yl)methoxy)styryl)benzoic acid]",–
1.22 ± 0.48 µM,4.9,6.02 ± 1.13 µM,–,–,–,"O=C(O)c1cccc(/C=C/c2ccc(OCc3cc(-c4ccc(F)c(F)c4)on3)cc2)c1 [Compound 30, (E)-3-(4-((5-(3,4-Difluorophenyl)isoxazol-3-yl)methoxy)styryl)benzoic acid]",–
–,–,–,16.2 ± 4.52 µM,–,–,"O=C(O)c1cccc(/C=C/c2ccc(OCc3cnoc3-c3ccccc3)cc2)c1 [Compound 16, (E)-3-(4-((5-Phenylisoxazol-4-yl)methoxy)styryl)benzoic acid]",–
3.56 ± 0.28 µM,2.2,7.67 ± 0.35 µM,–,–,–,"Cc1ccc(-c2cc(COc3ccc(/C=C/c4cccc(C(=O)O)c4)cc3)no2)cc1 [Compound 26, (E)-3-(4-((5-(p-Tolyl)isoxazol-3-yl)methoxy)styryl)benzoic acid]",–
–,–,–,20.7 ± 3.83 µM,–,–,"O=C(O)c1cccc(/C=C/c2ccc(OCc3conc3-c3ccccc3)cc2)c1 [Compound 15, (E)-3-(4-((3-Phenylisoxazol-4-yl)methoxy)styryl)benzoic Acid]",–
1.75 ± 0.82 µM,20.7,36.2 ± 3.82 µM,–,–,–,"O=C(O)c1cccc(/C=C/c2ccc(OCc3cc(-c4ccccc4Cl)on3)cc2)c1 [Compound 19, (E)-3-(4-((5-(2-Chlorophenyl)isoxazol-3-yl)methoxy)styryl)benzoic acid]",–

SMILES,IC50 (GST-PTP1B; read-out: IC50 PTP1B (Table 2)),"TCPTP/PTP1B, the ratio of IC50 of TCPTP and PTP1B (GST-PTP1B)",IC50 (GST-TCPTP),IC50 (GST-PTP1B; [1]),"Ki (PTP1B; 30 nM PTP1B, pNPP up to 80 mM, pH 6.5, read-out: inhibitory constant Ki)","PTP1B inhibitory activity, fold higher than compound 18 (GST-PTP1B; relative to compound 18)","mode of inhibition of PTP1B (PTP1B; Vmax constant, Km increased with compound concentration)"
"C[C@H](CCC(=O)O)[C@H]1CC[C@H]2[C@@H]3CC[C@@H]4C[C@H](O)CC[C@]4(C)[C@H]3CC[C@]12C [Lithocholic acid, lithocholic acid, reference compound]",12.5 ± 2.51 µM,1.7,20.9 ± 3.66 µM,–,–,–,–
